Reference: patent US10889606B2, “Biflavone-iron complex, preparation method and application thereof” (NANJING FORESTRY UNIVERSITY, priority 2017, dated 2021)

What was measured:
[1] = Pyrogallol auto-oxidation method, O2^−. free radical scavenging; details: Tris-HCl pH 8.20, 25° C., 322 nm, read-out: IC50 to scavenge O2^−. free radical
Description: (1) Pyrogallol Auto-Oxidation Method
Determination of auto-oxidation rate V0 of pyrogallol: 2 mL Tris-HCl buffer (pH=8.20) was added to a 10 mL sample tube at 25° C., 100 μL, DMSO was added as a control, after adding 0.8 mL distilled water, 0.2 mL pyrogallol solution having a concentration of 2 mmol·L^−1 was added, the mixture was poured into a cuvette after mixing uniformly, the absorbance at 322 nm was measured with pure water as a blank, the A value was recorded every 10 s for a total of 4 min, linear regression was performed with t as the abscissa, and A as the ordinate, straight line slope thereof is V0, and the measurement was performed for three times to obtain an average value.
The free radical scavenging rate was calculated according to Formula 3. SR(%)=(1−v1/v0)×[…] (Formula 3)

herring sperm DNA (fDNA) = assay: Interaction with herring sperm DNA (fDNA) by UV-vis spectroscopy, fluorescence spectroscopy and viscosity method; format: binding; details: UV-vis, fluorescence (fDNA-EB system), viscosity
Description: UV-vis spectroscopy, fluorescence spectroscopy and viscosity method are used to study the interaction between the Ame/Ame-Fe complex and herring sperm DNA (fDNA) to further reveal the mechanism of antitumor activity, the obtained spectra are shown in FIGS. 7-11. […] Thereby, it can be speculated that the mechanism of antitumor activity of the Ame and its complex may be that Ame or the complex thereof enters the interior of the cell and intercalates with the DNA strand to cause apoptosis. Since the interaction of the complex with DNA is stronger than of the Ame, the antitumor activity thereof is also stronger than of the Ame.

[2] = ABTS method, ABTS^+. free radical scavenging; details: read-out: IC50 for scavenging ABTS^+. free radicals, 25° C., 5 min, 730 nm
Description: The free radical scavenging abilities of the Ame and the Ame-Fe complex were studied by pyrogallol auto-oxidation method and ABTS method with the following steps:
Within a certain range, the scavenging rate is linear with the concentration. The curve of the scavenging rate and the concentration (c) is plotted in the present invention to obtain a corresponding linear equation, and the maximum half-inhibitory concentration (IC50 value) is calculated.

IC50 [1]: 23.3 µM
IC50 [2]: 20.7 µM
Compound: O=c1cc(-c2ccc(O)c(-c3c(O)cc(O)c4c(=O)cc(-c5ccc(O)cc5)oc34)c2)oc2cc(O)cc(O)c12 [Ame, amentoflavone]
manner of interaction with fDNA (herring sperm DNA (fDNA)): in the intercalation manner
